Laboratory results taken from patent US9936701B2, “Herbicidal compounds” (Syngenta Participations AG, priority 2013, dated 2018).

Tests used:
[1] = test system: a variety of test species; assay: Post-emergence herbicidal activity (glasshouse, sprayed after 8 days cultivation, evaluated after 13 days); format: in vivo; design: key: 5=total damage to plant; 0=no damage to plant; details: rate 1000 g/Ha, scale 0-5
Method in brief: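 Pot-grown seedlings sprayed 8 days after sowing with active ingredient in acetone/water (50:50) plus 0.5% Tween 20. Glasshouse at 24/16 °C day/night, 14 h light, 65% humidity, watered twice daily. Damage scored after 13 days on a 0–5 scale (5 = total damage, 0 = none).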

[2] = test system: a variety of test species; assay: Pre-emergence herbicidal activity (glasshouse, sprayed one day after sowing, evaluated after 13 days); format: in vivo; design: key: 5=total damage to plant; 0=no damage to plant; details: application pre-emergence, rate 1000 g/Ha, scale 0-5
Method in brief: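 Pre-emergence spray, one day post-sowing; vehicle acetone/water (50:50) + 0.5% Tween 20, aqueous dilution. Glasshouse 24/16 °C, 14 h light, 65% RH, watering twice daily. Score at 13 d on 0–5 scale, 5 = total damage.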

Row | Compound | ABUTH (Abutilon theophrasti) damage score, application post-emergence [1] | ALOMY (Alopecurus myosuroides) damage score, application post-emergence [1] | AMARE (Amaranthus retroflexus) damage score, application post-emergence [1] | ECHCG (Echinochloa crus-galli) damage score, application post-emergence [1] | SETFA (Setaria faberi) damage score, application post-emergence [1] | ZEAMX (Zea mays) damage score, application post-emergence [1] | Pre-emergence herbicidal damage score, ABUTH [2] | Pre-emergence herbicidal damage score, ALOMY [2] | Pre-emergence herbicidal damage score, AMARE [2] | Pre-emergence herbicidal damage score, ECHCG [2] | Pre-emergence herbicidal damage score, SETFA [2] | Pre-emergence herbicidal damage score, ZEAMX [2] | melting point [°C]
1 | CC(C)=CCCc1cc(N2C(=O)C(Cl)=C(C)C2O)no1 (stereo not shown) [A35] | 4 | 1 | 5 | 2 | 0 | 1 | 1 | 1 | 3 | 0 | 0 | 0 | 72 to 74
2 | CCOC(C)(C)CCCc1cc(N2C(=O)C(Cl)=C(C)C2O)no1 (stereo not shown) [A36] | 5 | 4 | 5 | 5 | 2 | 1 | 5 | 3 | 5 | 4 | 1 | 1 | 110 to 112
3 | CCCC(C)(C)c1cc(N2C(=O)C(Cl)=C(C)C2O)no1 (stereo not shown) [A37] | 5 | 5 | 5 | 5 | 5 | 3 | 5 | 4 | 5 | 5 | 4 | 1 | 96 to 98
4 | CCCCC(C)(C)c1cc(N2C(=O)C(Cl)=C(C)C2O)no1 (stereo not shown) [A38] | 5 | 5 | 5 | 5 | 5 | 2 | 1 | 3 | 5 | 5 | 2 | 1 | 75 to 77
5 | CC1=C(Cl)C(=O)N(c2cc(C(C)(C)CO)on2)C1O (stereo not shown) [A39] | 4 | 3 | 5 | 5 | 1 | 1 | 1 | 1 | 4 | 3 | 0 | 1 | 130 to 132
6 | CCC(C)(C)c1onc(N2C(=O)C(Cl)=C(C)C2O)c1C#N (stereo not shown) [A40] | 5 | 4 | 5 | 5 | 5 | 3 | 4 | 3 | 5 | 5 | 5 | 2 | 166 to 168
7 | C=CC(C)(C)c1cc(N2C(=O)C(Cl)=C(C)C2O)no1 (stereo not shown) [A41] | 5 | 5 | 5 | 5 | 5 | 4 | 5 | 4 | 5 | 4 | 5 | 3 | 114 to 116
8 | CC1=C(Cl)C(=O)N(c2cc(C(C)(C)C#N)on2)C1O (stereo not shown) [A42] | 5 | 5 | 5 | 5 | 5 | 4 | 5 | 4 | 5 | 4 | 5 | 2 | 145 to 147
9 | CCC(C)(CC)c1cc(N2C(=O)C(Cl)=C(C)C2O)no1 (stereo not shown) [A43] | 5 | 5 | 5 | 5 | 5 | 2 | 4 | 4 | 5 | 4 | 5 | 2 | 104 to 106
10 | CC1=C(Cl)C(=O)N(c2noc(C(C)C)c2C#N)C1O (stereo not shown) [A44, 3-(4-chloro-2-hydroxy-3-methyl-5-oxo-2H-pyrrol-1-yl)-5-isopropyl-isoxazole-4-carbonitrile] | 5 | 5 | 5 | 5 | 5 | 4 | 5 | 4 | 5 | 4 | 5 | 3 | 117 to 119
11 | CCC(C)(CC)c1onc(N2C(=O)C(Cl)=C(C)C2O)c1C#N (stereo not shown) [A45] | 5 | 5 | 5 | 5 | 5 | 3 | 4 | 3 | 5 | 3 | 4 | 2 | 129 to 130
12 | CCCC(C)(C)c1onc(N2C(=O)C(Cl)=C(C)C2O)c1C#N (stereo not shown) [A46] | 5 | 5 | 5 | 5 | 5 | 3 | 2 | 4 | 5 | 4 | 4 | 3 | 113 to 115
13 | CCCCC(C)(C)c1onc(N2C(=O)C(Cl)=C(C)C2O)c1C#N (stereo not shown) [A47] | 5 | 5 | 5 | 5 | 5 | 2 | 0 | 2 | 5 | 2 | 1 | 2 | 99 to 101
